ChEMBL document CHEMBL1201862, “PubChem BioAssay data set” (2004)
Calls of active or inactive are those of the source.

How the values were obtained:
Ion channel NompC = Ion channel NompC (Danio rerio, UniProt Q7T1G6); experiment: Dose response cell-based high-throughput screening assay for agonists of the transient receptor potential channel N1 (TRPN1). [Related pubchem assays (depositor defined):AID1424, AID1448]; format: functional
Mucolipin-3 = Mucolipin-3 (Homo sapiens, UniProt Q8TDD5); experiment: Fluorescence counterscreen assay for […] agonists: dose response cell-based high-throughput screening assay to identify agonists of the transient receptor potential channel ML3 (TRPML3). [Related pubchem assays: 1424, 1448 ]; format: functional
Chain of Mucolipin-3 (Q8TDD5 whole entry, the tested form may be a part): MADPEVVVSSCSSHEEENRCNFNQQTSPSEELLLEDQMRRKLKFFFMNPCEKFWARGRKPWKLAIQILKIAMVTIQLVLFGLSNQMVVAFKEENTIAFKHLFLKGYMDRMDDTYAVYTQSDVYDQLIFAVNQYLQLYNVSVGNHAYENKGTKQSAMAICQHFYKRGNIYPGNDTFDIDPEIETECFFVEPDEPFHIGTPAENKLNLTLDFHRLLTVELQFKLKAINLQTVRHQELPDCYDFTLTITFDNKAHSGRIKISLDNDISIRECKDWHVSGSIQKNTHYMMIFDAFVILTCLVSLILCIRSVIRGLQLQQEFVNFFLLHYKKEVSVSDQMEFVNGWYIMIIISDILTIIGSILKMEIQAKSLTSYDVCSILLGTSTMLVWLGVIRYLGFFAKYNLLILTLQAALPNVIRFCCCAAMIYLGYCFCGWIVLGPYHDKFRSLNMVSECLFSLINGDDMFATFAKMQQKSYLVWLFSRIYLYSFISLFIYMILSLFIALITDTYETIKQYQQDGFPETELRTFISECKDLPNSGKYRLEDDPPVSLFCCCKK

[1] = target: Photoreceptor-specific nuclear receptor (Homo sapiens, UniProt Q9Y5X4); format: functional, cell-based;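 further: CHO-S cells with Gal4-NCOR and VP16-NR2E3 two-hybrid luciferase reporter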
Chain of Photoreceptor-specific nuclear receptor (Q9Y5X4 whole entry, the tested form may be a part): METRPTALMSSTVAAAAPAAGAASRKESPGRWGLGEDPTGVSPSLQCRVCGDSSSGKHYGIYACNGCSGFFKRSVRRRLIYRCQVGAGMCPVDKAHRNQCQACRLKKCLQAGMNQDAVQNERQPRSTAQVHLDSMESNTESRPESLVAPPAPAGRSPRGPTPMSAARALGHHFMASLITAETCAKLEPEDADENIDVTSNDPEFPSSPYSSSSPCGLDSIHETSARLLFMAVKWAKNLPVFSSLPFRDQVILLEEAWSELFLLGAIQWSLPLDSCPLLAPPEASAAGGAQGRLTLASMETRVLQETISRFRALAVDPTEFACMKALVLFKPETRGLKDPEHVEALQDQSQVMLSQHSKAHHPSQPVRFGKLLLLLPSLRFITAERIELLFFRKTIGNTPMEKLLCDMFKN

[2] = target: Type-1 angiotensin II receptor (Homo sapiens, UniProt P30556); experiment: agonist activity at AGTR1 – cell-based, uHTS hits, selectivity assay for APJ receptor agonist project, dose response (AID 488865); format: functional;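 further: beta-arrestin recruitment to AT1 measured by enzyme fragment complementation luminescence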
Chain of Type-1 angiotensin II receptor (P30556 whole entry, the tested form may be a part): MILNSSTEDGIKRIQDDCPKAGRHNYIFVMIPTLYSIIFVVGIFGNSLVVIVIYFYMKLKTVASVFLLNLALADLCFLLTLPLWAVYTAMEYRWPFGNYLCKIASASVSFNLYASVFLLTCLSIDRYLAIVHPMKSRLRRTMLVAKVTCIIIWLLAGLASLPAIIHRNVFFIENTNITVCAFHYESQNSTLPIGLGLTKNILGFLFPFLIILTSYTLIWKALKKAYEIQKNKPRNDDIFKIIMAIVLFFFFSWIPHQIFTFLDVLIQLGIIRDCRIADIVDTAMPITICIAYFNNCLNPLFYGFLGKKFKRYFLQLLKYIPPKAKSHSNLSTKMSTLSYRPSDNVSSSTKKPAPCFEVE

Hexokinase = Hexokinase (Trypanosoma brucei, UniProt Q38C41); experiment: Confirmation assay for inhibitors of Trypanosoma brucei hexokinase 1-Analogue-first series. [Related pubchem assays (depositor defined):AID1430, AID1632, AID2516, AID2560, AID2579, AID2600, AID449725, AID492951]; format: functional
Chain of Hexokinase (Q38C41 whole entry): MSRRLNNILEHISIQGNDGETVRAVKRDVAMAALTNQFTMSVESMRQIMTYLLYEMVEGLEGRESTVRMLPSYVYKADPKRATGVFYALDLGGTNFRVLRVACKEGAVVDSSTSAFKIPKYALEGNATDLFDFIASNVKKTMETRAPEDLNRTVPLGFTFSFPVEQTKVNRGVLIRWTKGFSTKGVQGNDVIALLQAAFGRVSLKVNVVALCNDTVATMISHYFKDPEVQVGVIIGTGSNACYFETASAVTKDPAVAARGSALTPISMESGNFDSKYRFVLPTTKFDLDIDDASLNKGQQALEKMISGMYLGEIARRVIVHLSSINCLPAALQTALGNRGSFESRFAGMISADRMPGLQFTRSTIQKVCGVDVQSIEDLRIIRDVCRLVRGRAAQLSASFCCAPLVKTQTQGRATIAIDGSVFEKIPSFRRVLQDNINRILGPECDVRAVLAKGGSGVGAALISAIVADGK

[3] = target: T1, Sphingosine 1-phosphate receptor 4 (Homo sapiens, UniProt O95977); experiment: potency of S1P4 activators – cell-based, fluorescence, synthesized compounds, late-stage follow-up (AID 463107); format: functional
T1 sequence (O95977 whole entry): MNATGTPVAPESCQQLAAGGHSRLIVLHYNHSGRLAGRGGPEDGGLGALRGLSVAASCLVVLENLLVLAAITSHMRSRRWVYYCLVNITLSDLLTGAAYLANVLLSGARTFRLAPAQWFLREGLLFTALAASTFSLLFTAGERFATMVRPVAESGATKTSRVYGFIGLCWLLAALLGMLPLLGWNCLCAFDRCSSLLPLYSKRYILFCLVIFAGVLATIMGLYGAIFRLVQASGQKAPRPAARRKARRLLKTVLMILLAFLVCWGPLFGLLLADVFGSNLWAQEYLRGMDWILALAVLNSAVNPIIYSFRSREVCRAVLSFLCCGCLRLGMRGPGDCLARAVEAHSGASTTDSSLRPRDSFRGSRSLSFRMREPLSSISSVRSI

Coagulation factor XII = target: T2, Coagulation factor XII (Homo sapiens, UniProt P00748); format: functional;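 further: activated factor XIIa alpha cleaving a fluorogenic AMC peptide substrate; inhibitor potency from loss of enzyme activity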
T2 sequence (P00748 whole entry): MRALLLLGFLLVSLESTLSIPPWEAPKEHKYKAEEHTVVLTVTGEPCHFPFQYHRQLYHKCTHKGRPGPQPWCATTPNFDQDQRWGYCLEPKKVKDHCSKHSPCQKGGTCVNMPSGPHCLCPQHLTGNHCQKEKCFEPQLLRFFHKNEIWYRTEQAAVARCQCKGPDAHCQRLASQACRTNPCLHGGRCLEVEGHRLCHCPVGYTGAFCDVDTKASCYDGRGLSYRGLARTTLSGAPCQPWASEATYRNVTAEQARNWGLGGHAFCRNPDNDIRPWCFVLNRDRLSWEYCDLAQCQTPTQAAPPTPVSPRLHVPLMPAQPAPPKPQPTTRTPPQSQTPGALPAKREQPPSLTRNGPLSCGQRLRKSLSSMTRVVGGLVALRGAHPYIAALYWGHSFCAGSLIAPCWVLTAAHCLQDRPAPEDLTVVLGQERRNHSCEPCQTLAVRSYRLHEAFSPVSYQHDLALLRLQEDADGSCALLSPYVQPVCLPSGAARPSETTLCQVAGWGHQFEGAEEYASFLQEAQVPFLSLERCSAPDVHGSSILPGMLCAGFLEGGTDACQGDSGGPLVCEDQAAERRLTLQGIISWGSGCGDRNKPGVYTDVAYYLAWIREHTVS

T-cell = experiment: loss of vesicle association with mouse CD8+ T cells – mouse 2C CD8+ T cells, flow cytometry, dose response (AID 485284); format: functional
[4] = HPDE-C7 pancreatic duct cell viability loss – fluorescence, HTS (AID 430); format: functional, cell-based; conditions: Homo sapiens
[5] = viability loss of HPDE-C7K cells – cell-based, fluorescence, HTS, primary screen (AID 431); format: functional; conditions: Homo sapiens
[6] = target: T3, Short transient receptor potential channel 4 (Mus musculus, UniProt Q9QUQ5); experiment: potentiation of DAMGO-evoked TRPC4 calcium signal – cell-based, HEK293 TRPC4/mu-opioid, Fluo-4 calcium, EC20 DAMGO, dose response (AID 434941); format: functional
T3 sequence (Q9QUQ5 whole entry): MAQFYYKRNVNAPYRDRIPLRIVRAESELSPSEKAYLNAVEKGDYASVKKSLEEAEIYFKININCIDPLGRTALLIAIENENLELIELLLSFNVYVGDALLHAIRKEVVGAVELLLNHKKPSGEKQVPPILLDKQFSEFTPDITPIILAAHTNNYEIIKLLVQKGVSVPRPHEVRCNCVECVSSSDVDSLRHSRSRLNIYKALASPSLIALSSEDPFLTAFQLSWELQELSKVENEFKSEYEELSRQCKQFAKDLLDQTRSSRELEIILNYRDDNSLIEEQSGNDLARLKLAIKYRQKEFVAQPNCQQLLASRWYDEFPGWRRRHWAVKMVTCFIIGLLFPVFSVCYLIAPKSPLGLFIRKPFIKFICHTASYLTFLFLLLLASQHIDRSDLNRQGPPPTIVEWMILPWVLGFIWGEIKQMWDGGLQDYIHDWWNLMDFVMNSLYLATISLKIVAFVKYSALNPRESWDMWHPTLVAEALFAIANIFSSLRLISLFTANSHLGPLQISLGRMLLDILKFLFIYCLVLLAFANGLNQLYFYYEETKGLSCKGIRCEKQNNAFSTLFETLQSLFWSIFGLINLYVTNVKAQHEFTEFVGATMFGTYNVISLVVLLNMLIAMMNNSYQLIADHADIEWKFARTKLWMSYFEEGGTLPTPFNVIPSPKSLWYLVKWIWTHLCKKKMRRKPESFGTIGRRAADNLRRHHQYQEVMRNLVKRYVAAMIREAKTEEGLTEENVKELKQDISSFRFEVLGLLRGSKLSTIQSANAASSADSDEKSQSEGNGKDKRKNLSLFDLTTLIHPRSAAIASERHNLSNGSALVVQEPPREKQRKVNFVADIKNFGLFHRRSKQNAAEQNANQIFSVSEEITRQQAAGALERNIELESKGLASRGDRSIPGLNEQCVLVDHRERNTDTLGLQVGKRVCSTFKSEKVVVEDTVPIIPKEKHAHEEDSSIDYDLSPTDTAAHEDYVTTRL

[7] = target: T3, Short transient receptor potential channel 4; experiment: calcium entry via TRPC4 opening agents – cell-based, HEK293 TRPC4/mu-opioid, Fluo-4 calcium, dose response (AID 434937); format: functional
[8] = target: T4, Heat shock factor protein 1 (Mus musculus, UniProt P38532); experiment: enhancement of HSF1-driven luciferase signal – cell-based, NIH3T3, luminescence, dose retest, confirmation (AID 435004); format: functional;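 further: stress induced by proteasome inhibitor MG132 added 30 min after compound; luciferase reporter driven by HSF1 response element in NIH3T3 cells; actives raise luminescence as potentiators of the MG132 stress response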
T4 sequence (P38532 whole entry): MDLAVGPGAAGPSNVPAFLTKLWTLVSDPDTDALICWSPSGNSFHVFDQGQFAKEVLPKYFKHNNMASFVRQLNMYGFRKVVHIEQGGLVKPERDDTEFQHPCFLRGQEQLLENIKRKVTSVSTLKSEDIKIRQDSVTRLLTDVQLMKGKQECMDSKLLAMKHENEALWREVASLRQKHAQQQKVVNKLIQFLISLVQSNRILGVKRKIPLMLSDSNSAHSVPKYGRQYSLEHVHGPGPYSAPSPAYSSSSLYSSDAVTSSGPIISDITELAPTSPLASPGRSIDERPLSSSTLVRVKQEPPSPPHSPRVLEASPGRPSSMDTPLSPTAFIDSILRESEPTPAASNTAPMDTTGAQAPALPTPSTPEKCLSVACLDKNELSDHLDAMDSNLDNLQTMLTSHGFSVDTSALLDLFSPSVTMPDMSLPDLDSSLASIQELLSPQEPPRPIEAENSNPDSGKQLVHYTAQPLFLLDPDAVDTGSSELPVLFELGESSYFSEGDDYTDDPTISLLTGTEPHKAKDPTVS

[9] = target: T5, High affinity choline transporter 1 (Homo sapiens, UniProt Q9GZV3); experiment: human choline transporter blockers, potency – cell-based, 5-point CRC, membrane potential dye, dose response (AID 504840); format: functional
T5 sequence (Q9GZV3 whole entry): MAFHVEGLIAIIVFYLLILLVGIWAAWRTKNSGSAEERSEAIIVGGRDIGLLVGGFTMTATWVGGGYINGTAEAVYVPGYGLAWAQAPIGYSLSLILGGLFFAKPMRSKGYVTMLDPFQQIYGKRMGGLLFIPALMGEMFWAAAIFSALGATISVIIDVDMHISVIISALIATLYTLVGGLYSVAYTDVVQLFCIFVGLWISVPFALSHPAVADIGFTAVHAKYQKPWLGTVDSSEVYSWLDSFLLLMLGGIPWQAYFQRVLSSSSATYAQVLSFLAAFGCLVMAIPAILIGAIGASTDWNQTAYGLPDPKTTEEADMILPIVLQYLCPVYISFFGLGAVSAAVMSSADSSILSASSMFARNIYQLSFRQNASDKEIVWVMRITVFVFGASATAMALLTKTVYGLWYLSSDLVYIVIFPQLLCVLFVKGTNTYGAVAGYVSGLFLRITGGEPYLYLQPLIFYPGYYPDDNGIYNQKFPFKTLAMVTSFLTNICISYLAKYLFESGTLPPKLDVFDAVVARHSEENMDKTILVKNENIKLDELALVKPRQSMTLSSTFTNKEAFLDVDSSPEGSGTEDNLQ

[10] = target: T6, Tyrosine-protein phosphatase non-receptor type 7 (Homo sapiens, UniProt P35236); experiment: SAR analysis of chemical inhibitors of HePTP using a Fluorescent assay - Set 2. [Related pubchem assays (depositor defined):AID1059, AID1077, AID1661, AID2085, AID521]; format: functional
T6 sequence (P35236 whole entry): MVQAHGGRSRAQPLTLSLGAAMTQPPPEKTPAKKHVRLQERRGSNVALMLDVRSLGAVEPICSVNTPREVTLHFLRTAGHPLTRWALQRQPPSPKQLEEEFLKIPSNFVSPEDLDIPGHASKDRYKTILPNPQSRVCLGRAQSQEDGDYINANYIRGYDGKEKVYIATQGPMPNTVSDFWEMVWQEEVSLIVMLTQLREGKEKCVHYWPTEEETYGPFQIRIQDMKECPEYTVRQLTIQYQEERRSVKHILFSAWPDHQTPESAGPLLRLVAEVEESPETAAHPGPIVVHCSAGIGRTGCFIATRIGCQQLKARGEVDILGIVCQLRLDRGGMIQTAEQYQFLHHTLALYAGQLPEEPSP

[11] = target: Dual specificity protein phosphatase 3 (Homo sapiens, UniProt P51452); experiment: SAR VHR1 Fluorescent Assay for In Vitro dose response studies Set 2. [Related pubchem assays (depositor defined):AID1654, AID1661, AID1878]; format: functional
Chain of Dual specificity protein phosphatase 3 (P51452 whole entry): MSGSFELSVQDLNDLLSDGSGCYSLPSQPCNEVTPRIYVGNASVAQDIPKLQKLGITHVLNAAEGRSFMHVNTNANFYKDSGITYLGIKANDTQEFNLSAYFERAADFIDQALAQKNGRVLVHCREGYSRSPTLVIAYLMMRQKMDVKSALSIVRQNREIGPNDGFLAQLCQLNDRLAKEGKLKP

Chain of Ion channel NompC (Q7T1G6 whole entry): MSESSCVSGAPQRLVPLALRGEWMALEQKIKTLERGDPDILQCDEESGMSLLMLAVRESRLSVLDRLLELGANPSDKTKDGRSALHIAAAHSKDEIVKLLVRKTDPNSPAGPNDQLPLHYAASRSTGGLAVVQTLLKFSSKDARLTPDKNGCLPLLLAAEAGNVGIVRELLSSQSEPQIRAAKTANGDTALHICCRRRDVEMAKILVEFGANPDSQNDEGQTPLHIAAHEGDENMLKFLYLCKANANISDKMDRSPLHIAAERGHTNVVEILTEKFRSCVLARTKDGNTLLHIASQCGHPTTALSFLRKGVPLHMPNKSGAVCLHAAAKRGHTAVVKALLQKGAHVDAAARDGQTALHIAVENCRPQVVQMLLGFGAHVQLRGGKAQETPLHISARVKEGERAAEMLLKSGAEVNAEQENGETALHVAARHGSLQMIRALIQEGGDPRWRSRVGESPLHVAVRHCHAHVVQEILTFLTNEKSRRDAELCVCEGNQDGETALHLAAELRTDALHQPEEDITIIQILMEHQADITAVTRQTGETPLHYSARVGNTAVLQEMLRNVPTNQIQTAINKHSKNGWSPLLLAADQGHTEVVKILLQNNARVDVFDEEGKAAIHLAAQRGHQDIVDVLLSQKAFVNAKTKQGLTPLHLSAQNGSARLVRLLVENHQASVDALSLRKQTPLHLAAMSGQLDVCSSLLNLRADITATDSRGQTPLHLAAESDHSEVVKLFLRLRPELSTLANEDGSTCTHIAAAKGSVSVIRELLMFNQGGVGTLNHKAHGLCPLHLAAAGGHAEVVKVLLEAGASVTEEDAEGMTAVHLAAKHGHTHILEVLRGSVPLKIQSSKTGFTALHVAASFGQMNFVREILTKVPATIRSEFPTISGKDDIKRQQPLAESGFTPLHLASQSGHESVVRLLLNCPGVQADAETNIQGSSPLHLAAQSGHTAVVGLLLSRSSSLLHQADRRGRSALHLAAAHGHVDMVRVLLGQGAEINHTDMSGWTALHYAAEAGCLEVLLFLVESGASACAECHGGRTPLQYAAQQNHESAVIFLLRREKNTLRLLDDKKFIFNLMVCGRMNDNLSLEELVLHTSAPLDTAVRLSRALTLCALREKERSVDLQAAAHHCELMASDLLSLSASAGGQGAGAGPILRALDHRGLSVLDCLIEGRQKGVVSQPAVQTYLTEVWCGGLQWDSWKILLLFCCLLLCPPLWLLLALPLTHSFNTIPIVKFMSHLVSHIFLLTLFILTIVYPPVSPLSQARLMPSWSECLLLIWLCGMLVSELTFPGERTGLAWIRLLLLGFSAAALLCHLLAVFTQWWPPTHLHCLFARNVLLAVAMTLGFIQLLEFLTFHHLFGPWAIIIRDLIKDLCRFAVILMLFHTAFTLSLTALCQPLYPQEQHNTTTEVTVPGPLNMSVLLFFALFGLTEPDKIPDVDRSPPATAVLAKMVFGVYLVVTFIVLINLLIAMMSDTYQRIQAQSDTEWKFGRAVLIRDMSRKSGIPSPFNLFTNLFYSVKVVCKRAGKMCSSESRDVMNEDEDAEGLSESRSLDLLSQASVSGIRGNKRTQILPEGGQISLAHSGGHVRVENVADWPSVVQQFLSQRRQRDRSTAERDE

For `N#C/C(=N\Nc1ccc(Cl)c(Cl)c1)C(=O)C1CC1`, the EC50 (Ion channel NompC) was > 9.97 µM (inactive), the EC50 (Mucolipin-3) was > 29.9 µM (not active) and the IC50 [1] was 1.29 µM (active).

In the case of `CCCc1cc(C(=O)Nc2sc3c(c2C(=O)OCC)CCCC3)no1`, the EC50 [2] is reported as > 100 µM (inactive).

For `O=C(Nc1cc(Cl)ccc1C(=O)O)c1ccc(C(F)(F)F)cc1`, the IC50 (Hexokinase) was > 25 µM (inactive).

For `COCc1ccc(OCCOc2ccc(Cl)cc2Cl)c(Cl)n1`, the EC50 [3] was 12 µM (inactive).

With `COC(=O)c1n[nH]c(NC(=O)c2ccccc2Cl)n1` the IC50 (Coagulation factor XII) was 1.05 µM (active).

In the case of `O=C(NCCN1CCN(c2ccccc2)CC1)c1cccc(Br)c1`, the EC50 (T-cell) is reported as 7.17 µM (active).

In the case of `CCCCc1cc(O)c(CCCC)c(O)c1`, the EC50 [4] is reported as 8.86 µM (active), the EC50 [5] is reported as 9.78 µM (active) and the EC50 [6] is reported as 1.88 µM (active). The EC50 [7] was 0.473 µM (active), the EC50 [8] was 9.33 µM (active) and the IC50 [9] was 6.03 µM (active).

In the case of `S=C(Nc1ccccc1)N1CCN(Cc2ccc3c(c2)OCO3)CC1`, the IC50 [10] is reported as > 100 µM (inactive) and the IC50 [11] is reported as > 100 µM (inactive).
